Tests used:
[1] = IAM-HPLC, immobilized artificial membrane chromatography (affinity to phospholipids); format: physicochemical; design: scale not given here; details: IAM.PC.DD2 column, pH 7.4
Source text: In considering that lipophilicity is a known factor influencing passive diffusion across the BBB, this is an important observation. The affinity to phospholipids can also be determined using one-gradient protocols and the IAM column. CHIIAM can be used as a cut-off point to indicate the potential for promiscuous binding and interference with phospholipids.
The immobilized artificial membrane column (IAM.PC.DD2, 10 × 4.6 mm × 10.0 µm with a guard column (Regis Technologies; Morton Grove, IL, USA) was used for IAM-HPLC experiments. The column temperature was set to 30 °C. Similar to RP-HPLC, mobile phase A was a 50 mM ammonium acetate at pH 7.4, and mobile phase B was acetonitrile. The linear gradient from […] ACN was applied from 0 to 5.25 min and held at 98% ACN for 0.5 min at a constant flow rate of 1.5 mL/min.

[2] = target: human serum albumin (HSA) (Homo sapiens, UniProt P02768); assay: HSA-HPLC, biomimetic chromatography on Chiralpak HSA column; format: in vitro ADME; design: purchased Daicel Chiral Technologies, West Chester, PA, USA; details: for LogKHSA: pH 7.4; for %HSA: pH 7.4, recalculated from logKHSA
Source text: Utilizing columns modified by plasma proteins, such as human serum albumin (HSA), allows for estimating binding to plasma protein (PPB). Generally, PPB affects drug pharmacokinetics, including distribution, half-life, and clearance. While lipophilicity is a well-known factor in determining PPB, it should also be considered in early drug discovery. In general, more lipophilic compounds tend to have higher percentages of PP due to nonspecific interactions with proteins. However, hydrophilic compounds can also bind strongly to PP through […] and electrostatic interactions by binding in protein pockets.
For HSA-HPLC experiments, the column was Chiralpak® HSA (100 × 4 mm; 5 µm with safety guard column; Daicel Chiral Technologies, West Chester, PA, USA). The column temperature was set to 30 °C. The same phase A as in the IAM-HPLC case was used, and the mobile phase B was isopropanol (i-PrOH). The linear gradient from 0 to 20% i-PrOH was applied from 0 to 15 min, held at 20% i-PrOH for 12 min, and then returned to pure ammonium acetate solution. The mobile phase flow rate was 0.9 mL/min throughout the experiment. Three minutes of column recalibration was applied between each run. The retention times were collected at wavelengths between 190 and 300 nm, and the injection volume was 10 μL.

[3] = Fast gradient RP-HPLC on C18 column (CHI lipophilicity); format: physicochemical; details: for CHIC18 pH = 2.6 / CHIC18 pH = 7.4 / CHIC18 pH = 10.6: C18 column; for CHI LogP: from chromatographically determined CHI on nonionized forms (pH 10.6), CHI LogP = 0.054 × CHI − 1.467
Source text: Considering the significant differences in the calculations obtained, the next step of our investigation considered the determination of lipophilicity using a chromatographic approach. Among the available protocols, the fast gradient approach developed by Valko was chosen because it enables the assessment of lipophilicity from a single chromatographic measurement. In addition, this approach enables the determination of the acid/basic properties of molecules through the addition of experiments under different pH conditions.
Therefore, the CHI under pH10.6 can be considered and converted to chromatographically determined LogP, called CHI LogP. A cluster analysis (CA) was performed to compare chromatographically determined and calculated lipophilicity. A CA can be used for the visualization of similarities and differences between studied objects, in this case, lipophilic parameters. The obtained results clearly indicate that significant differences between theoretical and experimental data occurred, and they formed two separate groups (Figure 1). The differences are also visible on the calculated correlation matrix (Figure 2).
For RP-HPLC experiments, a C18 Hypersil GOLD^TM (50 mm × 4.6 mm; 5.0 µm with a guard column; Thermo Scientific, Waltham, MA, USA) column was applied. The column temperature was set to 40 °C. Three water solutions were used as mobile phase A: acetic acid at pH 2.6, […] at pH 7.4, and 50 mM ammonium acetate at pH 10.5. Mobile phase B was acetonitrile (ACN). The linear gradient from 2 to 98% ACN was applied from 0 to 5.25 min and held at 98% ACN for 1.75. The mobile phase flow rate was 1.5 mL/min throughout the experiment.

human serum albumin (HSA), sequence (P02768 25-609): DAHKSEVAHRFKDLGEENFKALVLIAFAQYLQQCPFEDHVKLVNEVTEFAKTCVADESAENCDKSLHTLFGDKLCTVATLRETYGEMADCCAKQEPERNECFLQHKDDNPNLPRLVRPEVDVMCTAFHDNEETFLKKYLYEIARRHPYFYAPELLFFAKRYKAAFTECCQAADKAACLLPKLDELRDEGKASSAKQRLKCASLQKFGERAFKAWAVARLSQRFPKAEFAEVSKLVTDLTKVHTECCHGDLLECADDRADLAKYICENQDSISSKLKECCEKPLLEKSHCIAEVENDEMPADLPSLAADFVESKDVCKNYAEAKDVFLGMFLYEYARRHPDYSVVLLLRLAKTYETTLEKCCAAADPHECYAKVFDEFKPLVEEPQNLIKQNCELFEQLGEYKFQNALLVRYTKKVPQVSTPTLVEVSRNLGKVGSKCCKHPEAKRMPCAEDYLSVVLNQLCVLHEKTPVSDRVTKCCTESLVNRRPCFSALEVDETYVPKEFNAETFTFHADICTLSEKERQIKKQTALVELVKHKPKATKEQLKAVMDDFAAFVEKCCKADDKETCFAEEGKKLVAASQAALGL

Row | SMILES | CHIIAM [1] | LogKHSA [2] | %HSA [2] | CHIC18 pH = 2.6 [3] | CHIC18 pH = 7.4 [3] | CHIC18 pH = 10.6 [3] | CHI LogP [3] | affinity to HSA, in words [2] | affinity to HSA compared with reference diclofenac [2]
1 | O=C1c2ccccc2S(=O)(=O)N1CCCCCN1CCN(c2ccc(Cl)cc2)CC1 [molecule 8] | 44.30 | 1.53 | 98.11% | 97.99 | 101.36 | 100.81 | 3.98 | – | –
2 | O=C1c2ccccc2S(=O)(=O)N1CCCCCN1CCN(c2cccc(Cl)c2Cl)CC1 [molecule 7] | 48.28 | 1.77 | 99.31% | 72.79 | 112.26 | 112.92 | 4.63 | – | –
3 | COc1cccc(N2CCN(CCCCCCN3C(=O)c4ccccc4S3(=O)=O)CC2)c1 [molecule 14] | 41.42 | 0.93 | 90.46% | 55.41 | 94.73 | 99.75 | 3.92 | – | –
4 | O=C1c2ccccc2S(=O)(=O)N1CCCCCN1CCN(c2cccc3ccccc23)CC1 [molecule 11] | 47.26 | 1.67 | 98.90% | 63.51 | 104.83 | 111.43 | 4.55 | – | –
5 | COc1ccccc1N1CCN(CCCCCN2C(=O)c3ccccc3S2(=O)=O)CC1 [molecule 6] | 38.03 | 0.68 | 83.59% | 52.94 | 79.45 | 91.77 | 3.49 | – | –
6 | O=C1c2ccccc2S(=O)(=O)N1CCCCCN1CCN(c2ccccn2)CC1 [molecule 10] | 35.73 | 0.72 | 84.71% | 38.96 | 76.74 | 84.51 | 3.10 | – | –
7 | O=C1c2ccccc2S(=O)(=O)N1CCCCCCN1CCN(c2ccccc2)CC1 [molecule 12] | 41.59 | 1.00 | 91.87% | 55.26 | 93.84 | 100.78 | 3.98 | – | –
8 | COc1ccccc1N1CCN(CCCCCCN2C(=O)c3ccccc3S2(=O)=O)CC1 [molecule 13] | 40.54 | 0.42 | 73.28% | 54.89 | 84.12 | 96.78 | 3.76 | – | –
9 | O=C1c2ccccc2S(=O)(=O)N1CCCCCN1CCN(c2ncccn2)CC1 [molecule 9] | 34.40 | 0.58 | 79.78% | 48.71 | 74.93 | 81.12 | 2.91 | – | –
10 | O=C1c2ccccc2S(=O)(=O)N1CCCCCCN1CCN(c2cccc(C(F)(F)F)c2)CC1 [molecule 19] | 46.84 | 1.85 | 99.61% | 63.86 | 113.75 | 114.05 | 4.69 | – | –
11 | COc1ccccc1N1CCN(CCCCN2C(=O)c3ccccc3S2(=O)=O)CC1 [molecule 2] | 46.90 | 1.72 | 99.13% | 60.08 | 110.90 | 109.41 | 4.44 | – | –
12 | O=C1c2ccccc2S(=O)(=O)N1CCCCCN1CCN(c2ccccc2)CC1 [molecule 5] | 39.09 | 0.84 | 88.23% | 52.20 | 89.50 | 95.60 | 3.70 | – | –
13 | O=C1c2ccccc2S(=O)(=O)N1CCCCN1CCN(c2cccc(Cl)c2Cl)CC1 [molecule 3] | 35.71 | 0.52 | 77.60% | 49.19 | 78.80 | 87.69 | 3.27 | – | –
14 | O=C1c2ccccc2S(=O)(=O)N1CCCCCCN1CCN(c2ccc(Cl)c(Cl)c2)CC1 [molecule 18] | 50.19 | 2.27 | – | 65.39 | 119.04 | 118.39 | 4.93 | – | higher affinity to reference diclofenac
15 | COc1ccc(N2CCN(CCCCCCN3C(=O)c4ccccc4S3(=O)=O)CC2)cc1 [molecule 15] | 40.04 | 0.65 | 82.67% | 55.04 | 87.50 | 96.78 | 3.76 | – | –
16 | O=C1c2ccccc2S(=O)(=O)N1CCCCCCN1CCN(c2ccc(Cl)cc2)CC1 [molecule 17] | 46.32 | 1.57 | 98.36% | 61.34 | 106.56 | 110.38 | 4.49 | – | –

Second part, the compound after the results:

Row | CHIIAM [1] | LogKHSA [2] | %HSA [2] | CHIC18 pH = 2.6 [3] | CHIC18 pH = 7.4 [3] | CHIC18 pH = 10.6 [3] | CHI LogP [3] | affinity to HSA, in words [2] | affinity to HSA compared with reference diclofenac [2] | SMILES
17 | 45.96 | 1.57 | 98.37% | 60.65 | 101.68 | 108.64 | 4.40 | – | – | O=C1c2ccccc2S(=O)(=O)N1CCCCCCN1CCN(c2cccc3sccc23)CC1 [molecule 25]
18 | 34.77 | −0.05 | 47.66% | 41.03 | 80.76 | 89.54 | 3.37 | relatively low-binding to HAS | – | O=C1c2ccccc2S(=O)(=O)N1CCCCCCN1CCN(c2ncccn2)CC1 [molecule 23]
19 | 45.78 | 1.23 | 95.36% | 60.18 | 102.90 | 107.33 | 4.33 | – | – | O=C1c2ccccc2S(=O)(=O)N1CCCCCCN1CCN(c2nsc3ccccc23)CC1 [molecule 24]
20 | 41.48 | 1.19 | 94.87% | 55.76 | 100.20 | 100.01 | 3.93 | – | – | COc1ccccc1N1CCN(Cc2ccc(CN3C(=O)c4ccccc4S3(=O)=O)cc2)CC1 [molecule 26]
21 | 42.69 | 1.00 | 91.90% | 57.21 | 97.64 | 104.68 | 4.19 | – | – | O=C1c2ccccc2S(=O)(=O)N1CCCCCCN1CCN(c2ccccc2F)CC1 [molecule 20]
22 | 38.48 | 0.55 | 78.60% | 43.25 | 82.33 | 90.87 | 3.44 | – | – | O=C1c2ccccc2S(=O)(=O)N1CCCCCCN1CCN(c2ccccn2)CC1 [molecule 22]
23 | 48.85 | 1.75 | 99.25% | 65.07 | 109.08 | 118.03 | 4.91 | – | – | O=C1c2ccccc2S(=O)(=O)N1CCCCCCN1CCN(c2cccc3ccccc23)CC1 [molecule 21]

— paper PMC11054528, “Evaluation of Physicochemical Properties of Ipsapirone Derivatives Based on Chromatographic and Chemometric Approaches” (Molecules, 2024)
